Data published in ChEMBL document CHEMBL4184210, “Optimization of novel monobactams with activity against carbapenem-resistant Enterobacteriaceae - Identification of LYS228” (Bioorg Med Chem Lett, 2018).
Converted amounts (≈) assume the structure as drawn.

Key:
[1] = system: Escherichia coli; assay: microbe, parasite or virus in culture
Description: Antimicrobial activity against Escherichia coli expressing beta-lactamase CTXM-15 by CLSI broth microdilution method

[2] = system: Escherichia coli; assay: microbe, parasite or virus in culture; remark: listed apart in the source
Description: Antimicrobial activity against Escherichia coli expressing beta-lactamase PER-1 by CLSI broth microdilution method

[3] = system: Enterobacteriaceae; assay: Antimicrobial activity against ESBL, KPC and MBL producing Enterobacteriaceae by CLSI broth microdilution method; assay type: functional
[4] = system: Escherichia coli; assay: microbe, parasite or virus in culture; remark: listed apart in the source
Description: Antimicrobial activity against Escherichia coli expressing beta-lactamase SHV-12 by CLSI broth microdilution method

[5] = system: Escherichia coli; assay: microbe, parasite or virus in culture; remark: listed apart in the source
Description: Antimicrobial activity against Escherichia coli expressing beta-lactamase TEM-10 by CLSI broth microdilution method

[6] = system: Escherichia coli; assay: microbe, parasite or virus in culture; remark: listed apart in the source
Description: Antimicrobial activity against Escherichia coli expressing beta-lactamase Oxa-160 by CLSI broth microdilution method

[7] = system: Escherichia coli; assay: microbe, parasite or virus in culture; remark: listed apart in the source
Description: Antimicrobial activity against Escherichia coli expressing beta-lactamase KPC-3 by CLSI broth microdilution method

[8] = system: Escherichia coli; assay: microbe, parasite or virus in culture; remark: listed apart in the source
Description: Antimicrobial activity against Escherichia coli expressing beta-lactamase NMC-A by CLSI broth microdilution method

[9] = system: Escherichia coli; assay: microbe, parasite or virus in culture; remark: listed apart in the source
Description: Antimicrobial activity against Escherichia coli expressing beta-lactamase Oxa-10 by CLSI broth microdilution method

[10] = system: Escherichia coli; assay: microbe, parasite or virus in culture; remark: listed apart in the source
Description: Antimicrobial activity against Escherichia coli expressing beta-lactamase DHA by CLSI broth microdilution method

[11] = system: Pseudomonas aeruginosa; assay: Antimicrobial activity against Pseudomonas aeruginosa expressing delta-mexB/delta-mexXY/delta-mexCD and delta-ampC mutant by CLSI broth microdilution method; assay type: functional
[12] = system: Escherichia coli; assay: microbe, parasite or virus in culture; remark: listed apart in the source
Description: Antimicrobial activity against Escherichia coli expressing beta-lactamase P99 by CLSI broth microdilution method

[13] = system: Escherichia coli; assay: microbe, parasite or virus in culture; remark: listed apart in the source
Description: Antimicrobial activity against Escherichia coli expressing beta-lactamase IMI-1 by CLSI broth microdilution method

[14] = system: Escherichia coli; assay: microbe, parasite or virus in culture; remark: listed apart in the source
Description: Antimicrobial activity against Escherichia coli expressing beta-lactamase MIR-1 by CLSI broth microdilution method

[15] = system: Escherichia coli; assay: microbe, parasite or virus in culture; remark: listed apart in the source
Description: Antimicrobial activity against Escherichia coli expressing beta-lactamase SME-1 by CLSI broth microdilution method

[16] = system: Escherichia coli; assay: microbe, parasite or virus in culture; remark: listed apart in the source
Description: Antimicrobial activity against Escherichia coli expressing beta-lactamase Oxa-48 by CLSI broth microdilution method

[17] = system: Pseudomonas aeruginosa; assay: Antimicrobial activity against Pseudomonas aeruginosa expressing nalB/delta-mexXY/delta-mexCDoprJ/delta-ampC by CLSI broth microdilution method; assay type: functional
[18] = system: Escherichia coli; assay: Antimicrobial activity against Escherichia coli expressing beta-lactamase NDM-1 by CLSI broth microdilution method; assay type: functional
[19] = system: Escherichia coli; assay: microbe, parasite or virus in culture; remark: listed apart in the source
Description: Antimicrobial activity against Escherichia coli expressing beta-lactamase GES-1 by CLSI broth microdilution method

[20] = system: Escherichia coli; assay: microbe, parasite or virus in culture; remark: listed apart in the source
Description: Antimicrobial activity against Escherichia coli expressing beta-lactamase IMP-1 by CLSI broth microdilution method

[21] = system: Escherichia coli; assay: Antimicrobial activity against Escherichia coli expressing beta-lactamase VEB-1 by CLSI broth microdilution method; assay type: functional
[22] = system: Escherichia coli; assay: microbe, parasite or virus in culture; remark: listed apart in the source
Description: Antimicrobial activity against Escherichia coli expressing beta-lactamase Oxa-181 by CLSI broth microdilution method

[23] = system: Escherichia coli; assay: microbe, parasite or virus in culture; remark: listed apart in the source
Description: Antimicrobial activity against Escherichia coli expressing beta-lactamase CMY-2 by CLSI broth microdilution method

[24] = target: T1, GABA A receptor alpha-2/beta-2/gamma-2 (Homo sapiens, UniProt P18507+P47869+P47870); assay: Inhibition of recombinant human GABA A alpha2beta2gamma2 receptor expressed in CHO-K1 cells incubated at room temperature for 15 mins before the GABA addition fluorescence spectrometry; assay type: cell-based
T1 sequence (P47870 whole entry): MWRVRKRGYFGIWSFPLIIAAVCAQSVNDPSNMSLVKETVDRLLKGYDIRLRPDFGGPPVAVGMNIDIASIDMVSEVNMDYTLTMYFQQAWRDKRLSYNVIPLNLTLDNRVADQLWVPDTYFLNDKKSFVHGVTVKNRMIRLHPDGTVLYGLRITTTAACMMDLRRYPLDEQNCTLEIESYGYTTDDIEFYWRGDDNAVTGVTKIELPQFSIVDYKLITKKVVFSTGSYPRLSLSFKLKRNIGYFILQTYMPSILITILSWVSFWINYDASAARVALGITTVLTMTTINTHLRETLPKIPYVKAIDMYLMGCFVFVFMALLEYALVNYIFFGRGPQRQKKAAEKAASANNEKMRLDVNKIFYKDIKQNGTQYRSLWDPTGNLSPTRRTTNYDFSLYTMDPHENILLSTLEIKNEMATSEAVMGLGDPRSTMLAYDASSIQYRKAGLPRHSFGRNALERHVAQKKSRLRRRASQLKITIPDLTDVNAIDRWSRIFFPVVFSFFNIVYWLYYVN
T1 sequence (P18507 whole entry): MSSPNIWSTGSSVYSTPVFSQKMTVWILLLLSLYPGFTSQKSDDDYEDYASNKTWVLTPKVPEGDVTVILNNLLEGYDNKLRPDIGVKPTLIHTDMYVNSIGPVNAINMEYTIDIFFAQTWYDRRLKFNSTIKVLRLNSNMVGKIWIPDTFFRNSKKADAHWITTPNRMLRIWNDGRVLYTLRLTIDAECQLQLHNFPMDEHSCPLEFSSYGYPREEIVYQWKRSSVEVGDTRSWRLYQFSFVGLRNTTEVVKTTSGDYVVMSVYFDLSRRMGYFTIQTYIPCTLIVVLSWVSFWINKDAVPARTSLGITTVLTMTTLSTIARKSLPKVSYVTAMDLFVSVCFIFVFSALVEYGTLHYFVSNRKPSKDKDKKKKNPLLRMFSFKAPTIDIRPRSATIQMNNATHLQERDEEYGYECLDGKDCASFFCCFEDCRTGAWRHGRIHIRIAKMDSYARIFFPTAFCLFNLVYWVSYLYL
T1 sequence (P47869 whole entry): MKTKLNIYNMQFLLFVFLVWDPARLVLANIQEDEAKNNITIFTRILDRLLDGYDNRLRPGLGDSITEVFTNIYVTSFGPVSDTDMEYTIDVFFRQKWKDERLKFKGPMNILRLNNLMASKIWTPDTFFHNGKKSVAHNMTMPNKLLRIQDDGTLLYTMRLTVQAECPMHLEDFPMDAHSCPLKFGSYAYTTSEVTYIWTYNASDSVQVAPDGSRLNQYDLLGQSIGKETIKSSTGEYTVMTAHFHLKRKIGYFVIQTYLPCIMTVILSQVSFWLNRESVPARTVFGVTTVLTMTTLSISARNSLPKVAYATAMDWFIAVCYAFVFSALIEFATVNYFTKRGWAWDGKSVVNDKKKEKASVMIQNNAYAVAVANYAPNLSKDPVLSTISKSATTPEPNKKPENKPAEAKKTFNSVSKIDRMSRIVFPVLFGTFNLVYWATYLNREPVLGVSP

[25] = system: Escherichia coli; assay: microbe, parasite or virus in culture; remark: listed apart in the source
Description: Antimicrobial activity against Escherichia coli expressing beta-lactamase PER-2 by CLSI broth microdilution method

[26] = system: Escherichia coli; assay: microbe, parasite or virus in culture; remark: listed apart in the source
Description: Antimicrobial activity against Escherichia coli expressing beta-lactamase KPC-4 by CLSI broth microdilution method

[27] = system: Escherichia coli; assay: microbe, parasite or virus in culture; remark: listed apart in the source
Description: Antimicrobial activity against Escherichia coli expressing beta-lactamase AmpC by CLSI broth microdilution method

[28] = system: Escherichia coli; assay: microbe, parasite or virus in culture; remark: listed apart in the source
Description: Antimicrobial activity against Escherichia coli expressing beta-lactamase VEB-7 by CLSI broth microdilution method

[29] = system: Escherichia coli; assay: microbe, parasite or virus in culture; remark: listed apart in the source
Description: Antimicrobial activity against Escherichia coli expressing beta-lactamase VIM-1 by CLSI broth microdilution method

[30] = system: Escherichia coli; assay: microbe, parasite or virus in culture; remark: listed apart in the source
Description: Antimicrobial activity against Escherichia coli expressing beta-lactamase VEB-4 by CLSI broth microdilution method

[31] = system: Escherichia coli; assay: microbe, parasite or virus in culture; remark: listed apart in the source
Description: Antimicrobial activity against Escherichia coli expressing beta-lactamase Oxa-18 by CLSI broth microdilution method

Row | Compound | MIC [1] [µg/mL] | MIC [2] [µg/mL] | MIC90 [3] [µg/mL] | MIC [4] [µg/mL] | MIC [5] [µg/mL] | MIC [6] [µg/mL] | MIC [7] [µg/mL] | MIC [8] [µg/mL] | MIC [9] [µg/mL] | MIC [10] [µg/mL] | MIC [12] [µg/mL] | MIC [13] [µg/mL] | MIC [14] [µg/mL] | MIC [15] [µg/mL] | MIC [16] [µg/mL] | MIC [18] [µg/mL] | MIC [19] [µg/mL] | MIC [20] [µg/mL] | MIC [21] [µg/mL] | MIC [22] [µg/mL] | further results
1 | N=C(N)NCc1cnn(C[C@@H]2[C@H](NC(=O)/C(=N\OC3(C(=O)O)CC3)c3csc(N)n3)C(=O)N2S(=O)(=O)O)n1 (stereo in doubt) | 0.125 (≈ 0.219 µM) | 64 (≈ 112 µM) | 4 (≈ 7 µM) | 0.25 (≈ 0.437 µM) | 1 (≈ 1.75 µM) | 0.125 (≈ 0.219 µM) | 0.125 (≈ 0.219 µM) | 0.125 (≈ 0.219 µM) | 0.25 (≈ 0.437 µM) | 8 (≈ 14 µM) | 0.25 (≈ 0.437 µM) | 0.06 (≈ 0.105 µM) | 0.5 (≈ 0.875 µM) | 0.06 (≈ 0.105 µM) | 0.06 (≈ 0.105 µM) | ≤ 0.06 | 0.06 (≈ 0.105 µM) | 0.125 (≈ 0.219 µM) | 16 (≈ 28 µM) | 0.125 (≈ 0.219 µM) | MIC [11]: 0.25 µg/mL (≈ 0.437 µM); MIC [17]: 16 µg/mL (≈ 28 µM); MIC [23]: 0.5 µg/mL (≈ 0.875 µM); IC50 [24]: 190 µM; MIC [25]: > 64 µg/mL; MIC [26]: 4 µg/mL (≈ 7 µM); MIC [27]: 0.5 µg/mL (≈ 0.875 µM); MIC [28]: 32 µg/mL (≈ 56 µM); MIC [29]: 0.06 µg/mL (≈ 0.105 µM); MIC [30]: 16 µg/mL (≈ 28 µM); MIC [31]: 0.5 µg/mL (≈ 0.875 µM)
2 | NC[C@@H]1CN(C[C@@H]2[C@H](NC(=O)/C(=N\OC3(C(=O)O)CC3)c3csc(N)n3)C(=O)N2S(=O)(=O)O)C(=O)O1 (stereo in doubt) | 0.125 (≈ 0.228 µM) | > 64 | 1 (≈ 1.83 µM) | 0.25 (≈ 0.457 µM) | 1 (≈ 1.83 µM) | 0.25 (≈ 0.457 µM) | 0.125 (≈ 0.228 µM) | 0.125 (≈ 0.228 µM) | 0.125 (≈ 0.228 µM) | 0.25 (≈ 0.457 µM) | 0.125 (≈ 0.228 µM) | 0.125 (≈ 0.228 µM) | ≤ 0.06 | 0.06 (≈ 0.11 µM) | 0.06 (≈ 0.11 µM) | 0.125 (≈ 0.228 µM) | 0.06 (≈ 0.11 µM) | 0.06 (≈ 0.11 µM) | 32 (≈ 58.4 µM) | 0.25 (≈ 0.457 µM) | MIC [11]: 16 µg/mL (≈ 29.2 µM); MIC [17]: > 64 µg/mL; MIC [23]: 0.125 µg/mL (≈ 0.228 µM); IC50 [24]: 1340 µM; MIC [25]: > 32 µg/mL; MIC [26]: 1 µg/mL (≈ 1.83 µM); MIC [27]: 0.125 µg/mL (≈ 0.228 µM); MIC [28]: 32 µg/mL (≈ 58.4 µM); MIC [29]: 0.06 µg/mL (≈ 0.11 µM); MIC [30]: 32 µg/mL (≈ 58.4 µM); MIC [31]: 0.5 µg/mL (≈ 0.913 µM)
3 | N=C(N)NCc1cn(C[C@@H]2[C@H](NC(=O)/C(=N\OC3(C(=O)O)CC3)c3csc(N)n3)C(=O)N2S(=O)(=O)O)nn1 (stereo in doubt) | 0.125 (≈ 0.219 µM) | 32 (≈ 56 µM) | 2 (≈ 3.5 µM) | 0.5 (≈ 0.875 µM) | 0.5 (≈ 0.875 µM) | 0.25 (≈ 0.437 µM) | 0.125 (≈ 0.219 µM) | 0.125 (≈ 0.219 µM) | 0.25 (≈ 0.437 µM) | 4 (≈ 7 µM) | 0.25 (≈ 0.437 µM) | 0.06 (≈ 0.105 µM) | 0.5 (≈ 0.875 µM) | 0.06 (≈ 0.105 µM) | 0.125 (≈ 0.219 µM) | 0.125 (≈ 0.219 µM) | 0.06 (≈ 0.105 µM) | 0.125 (≈ 0.219 µM) | 16 (≈ 28 µM) | 0.25 (≈ 0.437 µM) | MIC [23]: 0.25 µg/mL (≈ 0.437 µM); IC50 [24]: 890 µM; MIC [25]: > 64 µg/mL; MIC [26]: 2 µg/mL (≈ 3.5 µM); MIC [27]: 0.125 µg/mL (≈ 0.219 µM); MIC [28]: 32 µg/mL (≈ 56 µM); MIC [29]: 0.125 µg/mL (≈ 0.219 µM); MIC [30]: 8 µg/mL (≈ 14 µM); MIC [31]: 1 µg/mL (≈ 1.75 µM)
4 | Nc1nc(/C(=N/OC2(C(=O)O)CC2)C(=O)N[C@@H]2C(=O)N(S(=O)(=O)O)[C@@H]2CN2CCOC2=O)cs1 (stereo in doubt) [ANCREMONAM] | 0.125 (≈ 0.241 µM) | 64 (≈ 123 µM) | 2 (≈ 3.86 µM) | 0.5 (≈ 0.964 µM) | 1 (≈ 1.93 µM) | 1 (≈ 1.93 µM) | 0.25 (≈ 0.482 µM) | 0.125 (≈ 0.241 µM) | 0.125 (≈ 0.241 µM) | 0.5 (≈ 0.964 µM) | 0.25 (≈ 0.482 µM) | 0.125 (≈ 0.241 µM) | 0.125 (≈ 0.241 µM) | 0.125 (≈ 0.241 µM) | 0.125 (≈ 0.241 µM) | 0.125 (≈ 0.241 µM) | 0.125 (≈ 0.241 µM) | 0.125 (≈ 0.241 µM) | 32 (≈ 61.7 µM) | 0.125 (≈ 0.241 µM) | MIC [11]: 1 µg/mL (≈ 1.93 µM); MIC [17]: ≥ 64 µg/mL; MIC [23]: 0.25 µg/mL (≈ 0.482 µM); IC50 [24]: > 2400 µM; MIC [25]: 128 µg/mL (≈ 247 µM); MIC [26]: 0.5 µg/mL (≈ 0.964 µM); MIC [27]: 0.25 µg/mL (≈ 0.482 µM); MIC [28]: 16 µg/mL (≈ 30.9 µM); MIC [29]: 0.125 µg/mL (≈ 0.241 µM); MIC [30]: 8 µg/mL (≈ 15.4 µM); MIC [31]: 0.5 µg/mL (≈ 0.964 µM)
